Several values for one entry are separate records, joined by “and”; a condition that tells them apart may be missing. Equal entries are not always repeated. Toxic doses and inconclusive results are not listed. Cut-off read from the data, not from the text of the source: active = T/C of 150% or more; inactive = T/C below 125%.
Test system: L1210 leukemia ip in BDF1 mice, survival T/C
Experiment: NCI In Vivo Anticancer Drug Screen. Data for tumor model L1210 Leukemia (intraperitoneal) in B6D2F1 (BDF1) mice
Conditions: endpoint: mean survival time, higher = longer survival
Outline: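 Tumor cells were implanted, animals were treated, and survival was followed. The result divides the treated measurement by the vehicle-control measurement.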

[1] = dose: 50.0 mg/kg/injection, schedule: Q01DX009 (ip), vehicle: saline with Tween-80
[2] = dose: 100.0 mg/kg/injection, schedule: Q01DX009 (ip), vehicle: saline with Tween-80
[3] = dose: 100.0 mg/kg/injection, schedule: Q01DX001 (ip), vehicle: saline
[4] = dose: 200.0 mg/kg/injection, schedule: Q01DX001 (ip), vehicle: saline
[5] = dose: 12.0 mg/kg/injection, schedule: Q04DX003 (ip), vehicle: saline
[6] = dose: 25.0 mg/kg/injection, schedule: Q04DX003 (ip), vehicle: saline
[7] = dose: 100.0 mg/kg/injection, schedule: Q01DX009 (ip), vehicle: saline
[8] = dose: 50.0 mg/kg/injection, schedule: Q01DX001 (ip), vehicle: saline
[9] = dose: 400.0 mg/kg/injection, schedule: Q01DX001 (ip), vehicle: saline
[10] = dose: 200.0 mg/kg/injection, schedule: Q01DX009 (ip), vehicle: saline with Tween-80
[11] = dose: 400.0 mg/kg/injection, schedule: Q01DX009 (ip), vehicle: saline with Tween-80

Measured: T/C

C=CCNC(=O)N(CC=C)N=O
inactive: dose: 1.5 mg/kg/injection, schedule: Q01DX001 (ip), vehicle: carboxymethylcellulose (CMC) 102 % of control | dose: 3.0 mg/kg/injection, schedule: Q01DX001 (ip), vehicle: carboxymethylcellulose (CMC) 95 % of control | dose: 6.0 mg/kg/injection, schedule: Q01DX001 (ip), vehicle: carboxymethylcellulose (CMC) 96 % of control | dose: 12.0 mg/kg/injection, schedule: Q01DX001 (ip), vehicle: carboxymethylcellulose (CMC) 90 % of control | dose: 16.0 mg/kg/injection, schedule: Q01DX001 (ip), vehicle: carboxymethylcellulose (CMC) 102 % of control | dose: 31.0 mg/kg/injection, schedule: Q01DX001 (ip), vehicle: carboxymethylcellulose (CMC) 104 % of control | dose: 62.0 mg/kg/injection, schedule: Q01DX001 (ip), vehicle: carboxymethylcellulose (CMC) 100 % of control | dose: 125.0 mg/kg/injection, schedule: Q01DX001 (ip), vehicle: carboxymethylcellulose (CMC) 96 % of control

CNC(=O)C1C(c2ccccc2)C1c1ccc(C)cc1 (centres undefined)
inactive: dose: 100.0 mg/kg/injection, schedule: Q04DX002 (ip), vehicle: Klucel (hydroxypropylcellulose) (HPC) 88 % of control | dose: 200.0 mg/kg/injection, schedule: Q04DX002 (ip), vehicle: Klucel (hydroxypropylcellulose) (HPC) 92 % of control | dose: 400.0 mg/kg/injection, schedule: Q04DX002 (ip), vehicle: Klucel (hydroxypropylcellulose) (HPC) 103 % of control

CC(C)(O)CCNc1ncnc2c1ncn2C1OC(CO)C(O)C1O (centres undefined)
inactive: dose: 25.0 mg/kg/injection, schedule: Q01DX005 (ip), vehicle: water 97 % of control and 104 % of control | dose: 50.0 mg/kg/injection, schedule: Q01DX005 (ip), vehicle: water 103 % of control and 110 % of control | dose: 100.0 mg/kg/injection, schedule: Q01DX005 (ip), vehicle: water 106 % of control and 109 % of control

NC(=O)COc1c(Cl)cc(Cl)cc1Cl
inactive: dose: 100.0 mg/kg/injection, schedule: Q04DX002 (ip), vehicle: saline with Tween-80 103 % of control | dose: 200.0 mg/kg/injection, schedule: Q04DX002 (ip), vehicle: saline with Tween-80 103 % of control | dose: 400.0 mg/kg/injection, schedule: Q04DX002 (ip), vehicle: saline with Tween-80 100 % of control

CCCCOc1cc(C(=O)O)ccc1[N+](=O)[O-]
inactive: [1] 97 % of control | dose: 50.0 mg/kg/injection, schedule: Q04DX003 (ip), vehicle: saline with Tween-80 96 % of control | [2] 98 % of control | dose: 100.0 mg/kg/injection, schedule: Q04DX003 (ip), vehicle: saline with Tween-80 91 % of control | dose: 200.0 mg/kg/injection, schedule: Q04DX003 (ip), vehicle: saline with Tween-80 102 % of control

CCOC(=O)C(C(=O)O)C(C)C (centres undefined)
inactive: [3] 97 % of control | [4] 93 % of control

C[N+](C)(C)Cc1ccccc1
inactive: dose: 1.56 mg/kg/injection, schedule: Q01DX009 (ip), vehicle: saline 102 % of control | dose: 3.12 mg/kg/injection, schedule: Q01DX009 (ip), vehicle: saline 91 % of control | dose: 5.0 mg/kg/injection, schedule: Q01DX001 (ip), vehicle: saline 98 % of control | dose: 6.25 mg/kg/injection, schedule: Q01DX009 (ip), vehicle: saline 117 % of control | dose: 6.5 mg/kg/injection, schedule: Q01DX009 (ip), vehicle: saline 100 % of control | dose: 10.0 mg/kg/injection, schedule: Q01DX001 (ip), vehicle: saline 102 % of control and 109 % of control | [5] 113 % of control | dose: 12.5 mg/kg/injection, schedule: Q01DX009 (ip), vehicle: saline 100 % of control | dose: 20.0 mg/kg/injection, schedule: Q01DX001 (ip), vehicle: saline 98 % of control and 91 % of control | dose: 25.0 mg/kg/injection, schedule: Q01DX009 (ip), vehicle: saline 99 % of control and 107 % of control | [6] 87 % of control | dose: 50.0 mg/kg/injection, schedule: Q01DX009 (ip), vehicle: saline 96 % of control | [7] 96 % of control

O=C(Cc1cc2c(cc1[N+](=O)[O-])OCO2)c1c[nH]c2ccc(Br)cc12
inactive: [8] 98 % of control | [3] 92 % of control | [4] 98 % of control | [9] 95 % of control

Cc1ccc(C2(C(=O)O)CC2)cc1
inactive: [2] 100 % of control | [10] 97 % of control | [11] 94 % of control

C/C(=N/OC(=O)N(C)C)c1cc(Cl)ccc1Cl
inactive: [3] 100 % of control | [4] 100 % of control

C=C(Br)CNC(=O)CCCl
inactive: dose: 6.25 mg/kg/injection, schedule: Q01DX009 (ip), vehicle: other 109 % of control | dose: 12.5 mg/kg/injection, schedule: Q01DX009 (ip), vehicle: other 98 % of control | dose: 25.0 mg/kg/injection, schedule: Q01DX009 (ip), vehicle: other 102 % of control

Cc1cc(N=Nc2cccc([N+](=O)[O-])c2)cc(C(=O)O)c1O
inactive: dose: 6.25 mg/kg/injection, schedule: Q01DX001 (ip), vehicle: Klucel (hydroxypropylcellulose) (HPC) 102 % of control | dose: 12.5 mg/kg/injection, schedule: Q01DX001 (ip), vehicle: Klucel (hydroxypropylcellulose) (HPC) 94 % of control | dose: 25.0 mg/kg/injection, schedule: Q01DX001 (ip), vehicle: Klucel (hydroxypropylcellulose) (HPC) 89 % of control

O=C(CCC(C(=O)c1ccccc1)c1ccccc1)c1ccc(-c2ccccc2)cc1 (centres undefined)
inactive: dose: 87.5 mg/kg/injection, schedule: Q01DX009 (ip), vehicle: Klucel (hydroxypropylcellulose) (HPC) 94 % of control

COc1ccccc1CN1CCCN(Cc2ccccc2OC)C1c1cc(Cl)ccc1O
inactive: [8] 101 % of control | [3] 95 % of control | [4] 97 % of control | [9] 101 % of control

CC(C)(CBr)C(=O)O
inactive: [3] 95 % of control | [4] 95 % of control | [9] 100 % of control

O=c1cccccc1O.O=c1cccccc1O.[Cu]
inactive: dose: 1.56 mg/kg/injection, schedule: Q01DX009 (ip), vehicle: Klucel (hydroxypropylcellulose) (HPC) 97 % of control | dose: 3.12 mg/kg/injection, schedule: Q01DX009 (ip), vehicle: Klucel (hydroxypropylcellulose) (HPC) 94 % of control | dose: 6.0 mg/kg/injection, schedule: Q04DX003 (ip), vehicle: saline 94 % of control | dose: 6.25 mg/kg/injection, schedule: Q01DX009 (ip), vehicle: Klucel (hydroxypropylcellulose) (HPC) 94 % of control | [5] 95 % of control | [6] 102 % of control

COc1cc2c(cc1O)C(=O)CCC=C2
inactive: dose: 50.0 mg/kg/injection, schedule: Q01DX009 (ip), vehicle: other 102 % of control | dose: 100.0 mg/kg/injection, schedule: Q01DX009 (ip), vehicle: other 98 % of control | dose: 200.0 mg/kg/injection, schedule: Q01DX009 (ip), vehicle: other 94 % of control

O=[N+]([O-])c1cccc(-c2ccccc2)c1Br
inactive: [2] 94 % of control | dose: 100.0 mg/kg/injection, schedule: Q04DX003 (ip), vehicle: Klucel (hydroxypropylcellulose) (HPC) 93 % of control | [10] 93 % of control | dose: 200.0 mg/kg/injection, schedule: Q04DX003 (ip), vehicle: Klucel (hydroxypropylcellulose) (HPC) 96 % of control | [11] 94 % of control | dose: 400.0 mg/kg/injection, schedule: Q04DX003 (ip), vehicle: Klucel (hydroxypropylcellulose) (HPC) 94 % of control

COC(=O)C1(C)CCC(c2ccc(OC)cc2)CC1=O (centres undefined)
inactive: [7] 93 % of control | dose: 100.0 mg/kg/injection, schedule: Q04DX003 (ip), vehicle: saline 92 % of control | dose: 200.0 mg/kg/injection, schedule: Q01DX009 (ip), vehicle: saline 88 % of control | dose: 200.0 mg/kg/injection, schedule: Q04DX003 (ip), vehicle: saline 95 % of control | dose: 400.0 mg/kg/injection, schedule: Q01DX009 (ip), vehicle: saline 90 % of control | dose: 400.0 mg/kg/injection, schedule: Q04DX003 (ip), vehicle: saline 88 % of control

CN1CCN(C(=O)c2ccc(Cl)c(Cl)c2)CC1
inactive: dose: 12.5 mg/kg/injection, schedule: Q01DX009 (ip), vehicle: saline with Tween-80 117 % of control | dose: 12.5 mg/kg/injection, schedule: Q04DX003 (ip), vehicle: saline 102 % of control | dose: 25.0 mg/kg/injection, schedule: Q01DX009 (ip), vehicle: saline with Tween-80 114 % of control | [6] 102 % of control | [1] 102 % of control and 115 % of control | dose: 50.0 mg/kg/injection, schedule: Q04DX003 (ip), vehicle: saline 108 % of control | dose: 75.0 mg/kg/injection, schedule: Q01DX009 (ip), vehicle: saline with Tween-80 115 % of control | [2] 95 % of control
